Laboratory results: ChEMBL document CHEMBL1147947, “In vitro activity of novel dual action MDR anthranilamide modulators with inhibitory activity on CYP-450 (Part 2)” (Bioorg Med Chem, 2007)
Active and inactive are the calls of the source. No cut-off for these calls is given here.

Experiments:
[1] = Growth inhibition of human CEM/VLB500 cells after 3 days by resazurin assay; format: functional; details: CEM/VLB500, 72 h
Cytochrome P450 2C8 = molecular target: T1, Cytochrome P450 2C8 (Homo sapiens, UniProt P10632); assay: Inhibition of human CYP2C8 expressed in insect microsome after 30 mins; format: ADME, microsomes
T1 sequence (P10632 whole entry): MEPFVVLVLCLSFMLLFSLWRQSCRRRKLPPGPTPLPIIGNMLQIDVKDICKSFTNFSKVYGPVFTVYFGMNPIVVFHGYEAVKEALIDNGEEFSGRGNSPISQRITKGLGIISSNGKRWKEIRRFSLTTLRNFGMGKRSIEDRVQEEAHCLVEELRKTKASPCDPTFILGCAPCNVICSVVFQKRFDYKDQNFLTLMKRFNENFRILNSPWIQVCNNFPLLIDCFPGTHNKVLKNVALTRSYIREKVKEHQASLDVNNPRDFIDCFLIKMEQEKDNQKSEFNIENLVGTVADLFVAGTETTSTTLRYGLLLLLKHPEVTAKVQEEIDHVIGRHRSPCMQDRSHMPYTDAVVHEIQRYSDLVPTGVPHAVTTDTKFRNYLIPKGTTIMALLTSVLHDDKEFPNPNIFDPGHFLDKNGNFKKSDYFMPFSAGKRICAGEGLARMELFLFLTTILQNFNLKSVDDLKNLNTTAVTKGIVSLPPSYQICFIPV

Cytochrome P450 2D6 = Cytochrome P450 2D6 (Homo sapiens, UniProt P10635); assay: Inhibition of human CYP2D6 expressed in insect microsome after 30 mins; format: ADME, microsomes
Chain of Cytochrome P450 2D6 (P10635 whole entry): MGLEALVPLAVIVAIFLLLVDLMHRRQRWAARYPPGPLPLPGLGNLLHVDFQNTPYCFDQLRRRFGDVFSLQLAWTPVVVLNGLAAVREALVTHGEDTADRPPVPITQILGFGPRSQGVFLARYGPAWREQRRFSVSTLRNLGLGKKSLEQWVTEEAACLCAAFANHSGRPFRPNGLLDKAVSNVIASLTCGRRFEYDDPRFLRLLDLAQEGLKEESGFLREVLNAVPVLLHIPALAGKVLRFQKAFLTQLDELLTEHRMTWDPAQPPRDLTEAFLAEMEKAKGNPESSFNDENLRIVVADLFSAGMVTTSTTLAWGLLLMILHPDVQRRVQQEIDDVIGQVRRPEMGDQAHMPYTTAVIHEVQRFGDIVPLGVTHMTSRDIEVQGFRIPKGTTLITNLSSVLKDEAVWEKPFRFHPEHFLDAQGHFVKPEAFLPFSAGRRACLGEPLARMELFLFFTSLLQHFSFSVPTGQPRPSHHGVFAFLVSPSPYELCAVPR

Cytochrome P450 1A2 = molecular target: T2, Cytochrome P450 1A2 (Homo sapiens, UniProt P05177); assay: Inhibition of human CYP1A2 expressed in insect microsome after 15 mins; format: ADME, microsomes
T2 sequence (P05177 whole entry): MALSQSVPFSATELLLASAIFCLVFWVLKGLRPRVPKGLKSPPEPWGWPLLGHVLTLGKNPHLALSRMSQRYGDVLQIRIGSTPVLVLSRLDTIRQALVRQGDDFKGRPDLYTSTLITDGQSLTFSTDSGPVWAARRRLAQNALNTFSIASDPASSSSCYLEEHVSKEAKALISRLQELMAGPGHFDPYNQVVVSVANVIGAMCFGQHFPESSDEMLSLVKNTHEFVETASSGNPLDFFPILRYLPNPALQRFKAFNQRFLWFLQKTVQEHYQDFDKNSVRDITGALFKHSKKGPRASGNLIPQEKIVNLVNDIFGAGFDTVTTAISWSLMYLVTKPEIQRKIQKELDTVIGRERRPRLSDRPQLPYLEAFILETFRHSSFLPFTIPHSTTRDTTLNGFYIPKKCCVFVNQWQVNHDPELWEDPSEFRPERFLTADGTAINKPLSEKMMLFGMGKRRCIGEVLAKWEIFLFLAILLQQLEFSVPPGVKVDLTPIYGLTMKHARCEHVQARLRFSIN

Cytochrome P450 2A6 = molecular target: T3, Cytochrome P450 2A6 (Homo sapiens, UniProt P11509); assay: Inhibition of human CYP2A6 expressed in insect microsome after 15 mins; format: ADME, microsomes
T3 sequence (P11509 whole entry): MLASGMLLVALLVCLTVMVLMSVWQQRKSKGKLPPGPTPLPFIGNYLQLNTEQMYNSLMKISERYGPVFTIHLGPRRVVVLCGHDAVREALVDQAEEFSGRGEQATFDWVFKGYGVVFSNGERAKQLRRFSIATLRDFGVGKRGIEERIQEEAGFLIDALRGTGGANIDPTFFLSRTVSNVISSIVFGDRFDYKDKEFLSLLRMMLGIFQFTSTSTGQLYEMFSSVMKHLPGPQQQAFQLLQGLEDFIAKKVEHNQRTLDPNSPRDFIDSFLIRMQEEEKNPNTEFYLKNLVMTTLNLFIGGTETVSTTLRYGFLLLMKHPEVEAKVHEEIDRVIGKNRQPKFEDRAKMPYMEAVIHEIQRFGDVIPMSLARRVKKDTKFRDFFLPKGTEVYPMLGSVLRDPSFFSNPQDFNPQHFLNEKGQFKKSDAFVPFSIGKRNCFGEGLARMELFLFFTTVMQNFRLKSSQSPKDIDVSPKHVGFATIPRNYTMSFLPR

Cytochrome P450 2E1 = Cytochrome P450 2E1 (Homo sapiens, UniProt P05181); assay: Inhibition of human CYP2E1 expressed in insect microsome after 45 mins; format: ADME, microsomes
Chain of Cytochrome P450 2E1 (P05181 whole entry): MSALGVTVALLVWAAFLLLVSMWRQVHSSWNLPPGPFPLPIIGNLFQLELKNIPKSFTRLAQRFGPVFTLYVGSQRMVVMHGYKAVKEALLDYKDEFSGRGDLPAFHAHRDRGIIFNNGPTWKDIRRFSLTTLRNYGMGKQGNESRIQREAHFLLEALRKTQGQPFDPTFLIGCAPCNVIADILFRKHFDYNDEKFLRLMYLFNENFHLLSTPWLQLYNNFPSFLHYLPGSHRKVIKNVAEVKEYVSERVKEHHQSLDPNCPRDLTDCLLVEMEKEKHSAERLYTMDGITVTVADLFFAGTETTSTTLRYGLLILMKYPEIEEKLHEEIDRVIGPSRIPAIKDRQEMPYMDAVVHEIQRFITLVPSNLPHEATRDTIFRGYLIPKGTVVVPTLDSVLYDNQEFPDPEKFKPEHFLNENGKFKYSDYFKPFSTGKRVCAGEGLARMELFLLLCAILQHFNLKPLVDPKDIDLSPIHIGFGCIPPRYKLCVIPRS

Cytochrome P450 2B6 = molecular target: T4, Cytochrome P450 2B6 (Homo sapiens, UniProt P20813); assay: Inhibition of human CYP2B6 expressed in insect microsome after 30 mins; format: ADME, microsomes
T4 sequence (P20813 whole entry): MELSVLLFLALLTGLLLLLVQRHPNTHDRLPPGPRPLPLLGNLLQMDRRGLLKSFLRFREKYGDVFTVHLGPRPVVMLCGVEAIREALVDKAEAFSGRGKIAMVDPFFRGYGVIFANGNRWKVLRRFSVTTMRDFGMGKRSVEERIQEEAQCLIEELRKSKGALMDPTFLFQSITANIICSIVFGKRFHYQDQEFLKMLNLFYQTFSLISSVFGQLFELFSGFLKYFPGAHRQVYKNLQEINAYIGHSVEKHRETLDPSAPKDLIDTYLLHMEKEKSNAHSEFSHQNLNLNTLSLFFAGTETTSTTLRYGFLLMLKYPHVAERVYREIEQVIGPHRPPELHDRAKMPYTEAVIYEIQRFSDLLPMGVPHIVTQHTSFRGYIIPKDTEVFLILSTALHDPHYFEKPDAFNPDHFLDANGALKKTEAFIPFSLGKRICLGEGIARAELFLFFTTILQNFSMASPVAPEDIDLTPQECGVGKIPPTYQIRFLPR

Cytochrome P450 2C9 = Cytochrome P450 2C9 (Homo sapiens, UniProt P11712); assay: Inhibition of human CYP2C9 expressed in insect microsome after 45 mins; format: ADME, microsomes
Chain of Cytochrome P450 2C9 (P11712 whole entry): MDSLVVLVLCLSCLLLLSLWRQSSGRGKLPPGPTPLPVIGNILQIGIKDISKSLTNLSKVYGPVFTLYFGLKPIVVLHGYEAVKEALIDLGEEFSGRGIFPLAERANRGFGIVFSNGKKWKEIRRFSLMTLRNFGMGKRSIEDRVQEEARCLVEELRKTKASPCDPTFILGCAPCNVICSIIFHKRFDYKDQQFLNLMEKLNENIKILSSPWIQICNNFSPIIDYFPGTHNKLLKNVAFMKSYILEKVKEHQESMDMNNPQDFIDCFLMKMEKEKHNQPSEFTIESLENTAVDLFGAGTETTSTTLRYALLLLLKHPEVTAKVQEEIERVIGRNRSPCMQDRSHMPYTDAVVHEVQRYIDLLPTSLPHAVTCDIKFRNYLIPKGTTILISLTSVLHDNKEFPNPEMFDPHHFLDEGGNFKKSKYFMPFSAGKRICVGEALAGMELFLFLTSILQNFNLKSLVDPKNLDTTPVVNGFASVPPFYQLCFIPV

Cytochrome P450 3A4 = Cytochrome P450 3A4 (Homo sapiens, UniProt P08684); assay: Inhibition of human CYP3A4 expressed in insect microsome using 7-benzyloxy-4-trifluoromethylcoumarin substrate after 30 mins; format: ADME, microsomes
Chain of Cytochrome P450 3A4 (P08684 whole entry): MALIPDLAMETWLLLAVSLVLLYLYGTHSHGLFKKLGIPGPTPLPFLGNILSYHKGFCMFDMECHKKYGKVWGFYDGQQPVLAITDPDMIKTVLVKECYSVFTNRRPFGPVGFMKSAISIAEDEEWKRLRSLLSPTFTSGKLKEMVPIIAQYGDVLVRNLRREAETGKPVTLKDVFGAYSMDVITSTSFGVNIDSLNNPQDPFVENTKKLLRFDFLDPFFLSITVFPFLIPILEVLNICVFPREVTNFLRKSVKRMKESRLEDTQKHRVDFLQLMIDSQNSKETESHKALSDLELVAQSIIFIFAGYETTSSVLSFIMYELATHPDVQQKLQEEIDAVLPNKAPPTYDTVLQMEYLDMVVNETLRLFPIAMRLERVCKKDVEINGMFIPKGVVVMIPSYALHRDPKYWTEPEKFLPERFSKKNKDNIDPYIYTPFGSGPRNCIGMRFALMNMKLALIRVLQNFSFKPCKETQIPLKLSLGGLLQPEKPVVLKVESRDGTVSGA

Cytochrome P450 2C19 = Cytochrome P450 2C19 (Homo sapiens, UniProt P33261); assay: Inhibition of human CYP2C19 expressed in insect microsome after 30 mins; format: ADME, microsomes
Chain of Cytochrome P450 2C19 (P33261 whole entry): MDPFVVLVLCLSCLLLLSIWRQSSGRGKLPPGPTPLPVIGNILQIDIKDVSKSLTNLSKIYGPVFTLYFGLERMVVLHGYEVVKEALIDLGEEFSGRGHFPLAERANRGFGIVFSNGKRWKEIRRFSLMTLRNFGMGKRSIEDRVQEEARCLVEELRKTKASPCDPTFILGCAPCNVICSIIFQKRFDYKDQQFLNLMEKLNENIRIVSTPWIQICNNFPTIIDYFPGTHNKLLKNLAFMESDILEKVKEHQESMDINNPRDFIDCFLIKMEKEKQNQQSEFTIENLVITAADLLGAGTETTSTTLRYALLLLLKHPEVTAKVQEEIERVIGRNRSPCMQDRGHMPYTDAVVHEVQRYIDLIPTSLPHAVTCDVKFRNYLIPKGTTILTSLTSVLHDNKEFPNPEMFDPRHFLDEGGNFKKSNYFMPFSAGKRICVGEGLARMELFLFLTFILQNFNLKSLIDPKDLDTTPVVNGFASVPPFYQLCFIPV

CEM/VLB500 = assay: Growth inhibition of human CEM/VLB500 cells at 1 uM after 3 days by resazurin assay; format: functional, cell-based

SMILES | GI50 [1] | IC50 (Cytochrome P450 2C8) | IC50 (Cytochrome P450 2D6) | IC50 (Cytochrome P450 1A2) | IC50 (Cytochrome P450 2A6) | IC50 (Cytochrome P450 2E1) | IC50 (Cytochrome P450 2B6) | IC50 (Cytochrome P450 2C9) | IC50 (Cytochrome P450 3A4) | IC50 (Cytochrome P450 2C19) | Activity (CEM/VLB500)
COc1ccc(CCN2CCC[C@@H]2CNC(=O)c2ccccc2NC(=O)c2cnc3ccccc3c2)cc1OC | > 15 µM | – | – | – | – | – | – | – | – | – | –
COc1ccc(CCN(C)CCNC(=O)c2ccccc2NC(=O)c2cnc3ccccc3c2)cc1OC | – | 5.82 µM | > 100 µM | > 100 µM | > 100 µM | > 100 µM | > 100 µM | 2.08 µM | 1.62 µM | 14.7 µM | –
COc1ccc(CCN(C)CCC[C@@](C#N)(c2ccc(OC)c(OC)c2)C(C)C)cc1OC | > 15 µM | – | – | – | – | – | – | – | – | – | –
COc1cc2c(cc1OC)CN(CCc1ccc(NC(=O)c3cc(OC)c(OC)cc3NC(=O)c3cnc4ccccc4c3)cc1)CC2 | 13.5 µM | 45.3 µM | 100 µM | – | > 100 µM | > 100 µM | > 100 µM | 7.1 µM | – | > 10 µM | –
COc1ccc(CN2CCN(c3ccc(NC(=O)c4ccccc4NC(=O)c4cnc5ccccc5c4)cc3)CC2)cc1OC | > 15 µM | 13.3 µM | > 100 µM | > 100 µM | > 100 µM | > 100 µM | > 100 µM | > 10 µM | 20.2 µM | 23 µM | –
COc1ccc(CCN2CCC[C@H]2CNC(=O)c2ccccc2NC(=O)c2cnc3ccccc3c2)cc1OC | > 15 µM | – | – | – | – | – | – | – | – | – | –
O=C(Nc1ccccc1C(=O)N[C@@H]1CCCC[C@@H]1N1CCN(c2ccccc2)CC1)c1cnc2ccccc2c1 (racemic) | 11.5 µM | – | – | – | – | – | – | – | – | – | –
COc1ccc(CN2CCN(c3ccc(NC(=O)c4cc(OC)c(OC)cc4NC(=O)c4cnc5ccccc5c4)cc3)CC2)cc1OC | ≥ 15 µM | 1.08 µM | 17.3 µM | 6.68 µM | – | – | 100 µM | 0.0968 µM | 0.195 µM | 0.393 µM | inactive
